Assay results published in patent publication US20040029100A1, “Rapid screen to identify p-glycoprotein substrates and high affinity modulators” (priority 2000, published 2004).
Read-outs that look alike come from different tables or passages of the source.

Tests used:
[1] = target: T1, P-glycoprotein (Pgp) purified from MDR CH^RB30 Chinese hamster ovary cells (Cricetulus griseus, UniProt P21448); experiment: Quenching of intrinsic Trp fluorescence of purified Pgp by nucleotides, drugs and peptides; settings: for ΔFmax: maximal quenching reached at saturation; for ΔFmax2: lower affinity component
Method: (§1) Purification of Pgp. Pgp was purified from plasma membrane of MDR CH^RB30 cells by a modification of the method previously described for CH^RC5 (27). […] Contaminating glycoproteins were removed from the S2 fraction by passing through a concanavalinA-Sepharose 4B column (Pharmacia) equilibrated with 2 mM CHAPS buffer. […] The Pgp preparation was kept on ice and used within 24 h.
(§2) Steady-state Fluorescence Measurements. Steady-state fluorescence measurements were performed using a Spex Model DM3000 spectrofluorimeter (Spex Industries Inc., Edison, N.J.) at 22° C., with excitation and emission bandpass set to 4 nm. Most fluorescence studies were carried out on solutions of 100 μg/mL Pgp in 2 mM CHAPS buffer, in the presence of 0.5 mg/mL of the phospholipid PMPC (Avanti Polar Lipids, Alabaster, Ala.). PMPC was added as extruded 100 nm unilamellar vesicles (8). With some drugs, the use of a lipid was not required for the fluorescence measurements. The excitation and emission spectra were the average of three scans, and were corrected by subtracting control scans with the same phospholipid buffer in the absence of protein.
(§3) Quenching Studies using TNP-Nucleotide Derivatives and Drugs. […] Working solutions of TNP-derivatives, and non-peptide drugs and modulators were also prepared in 2 mM CHAPS with 0.5 mg/mL PMPC vesicles, whereas peptide-based drugs and modulators were dissolved in dimethylsulfoxide (DMSO). […] Quenching experiments were performed by successively adding 5 μL aliquots of TNP-derivatives or drug solution to 500 μL of Pgp solution in a 0.5 cm quartz cuvette. After each addition, the sample was excited at 290 nm and the steady-state fluorescence emission was measured at 330 nm. Fluorescence intensities were corrected for dilution, scattering, and the inner filter effect as described elsewhere (8). Control titrations were performed with 30 μM NATA to assess the non-specific quenching of Trp fluorescence by TNP-nucleotide derivatives and drugs.
(§4) The experimental quenching data were computer-fitted to the following equation as described previously (8)(9): [formula]
(§5) where (ΔF/F0 100) is the percent quenching (percent change in fluorescence relative to the initial value), following addition of substrate at a concentration [S], and Kd is the dissociation constant. Fitting was carried out using nonlinear regression with the Marquardt-Levenberg algorithm (SigmaPlot, SPSS Inc., Chicago, Ill.), and values of Kd and (ΔFmax/F0 100) were extracted. For biphasic titration curves, each section of the binding curve was fitted to the above equation separately, as described previously (32).

[2] = target: Pgp ATPase (Cricetulus griseus, UniProt P21448); experiment: Pgp ATPase activity; format: biochemical; settings: over the range 0.3-0.5 M
[3] = target: T1, P-glycoprotein (Pgp) purified from MDR CH^RB30 Chinese hamster ovary cells; experiment: Trp fluorescence lifetime of purified Pgp in presence of nucleotides and drugs; parameters: Pgp was purified from plasma membrane of MDR CH^RB30 cells; endogenous in cells; host or cells: MDR CH^RB30 Chinese hamster ovary cells (plasma membrane, CHAPS extraction, concanavalin A-Sepharose pass-through); settings: Pgp Trp decay, concentration of substance
Method: as §1
Fluorescence Lifetime Measurements. Fluorescence decays were measured with a PTI Model C-720 fluorescence lifetime instrument ((28), Photon Technology International Inc., Lawrenceville, N.J.) utilizing a proprietary stroboscopic detection technique (29). […] Fluorescence decays were analyzed with a PTI TimeMaster Pro analysis package using a discrete 1- to 4- exponential fit, 1- to 4-exponential global analysis, or lifetime distribution analysis by the Exponential Series Method (ESM) (30). The quality of fits was judged by chi-square values and weighed residuals.

[4] = target: P-glycoprotein (Pgp) (Cricetulus griseus, UniProt P21448); experiment: in vitro; settings: Chinese hamster, Kd2
Method: as §1, §2, §3, §4, §5

[5] = maximal Trp quenching, single or higher affinity component
[6] = read-out: Kd1, single binding site or high affinity site, 100 μg/mL Pgp, 2 mM CHAPS, 0.5 mg/mL PMPC, 22° C.
[7] = read-out: Kd2, lower affinity site of biphasic quench curve

T1 sequence (P21448 whole entry): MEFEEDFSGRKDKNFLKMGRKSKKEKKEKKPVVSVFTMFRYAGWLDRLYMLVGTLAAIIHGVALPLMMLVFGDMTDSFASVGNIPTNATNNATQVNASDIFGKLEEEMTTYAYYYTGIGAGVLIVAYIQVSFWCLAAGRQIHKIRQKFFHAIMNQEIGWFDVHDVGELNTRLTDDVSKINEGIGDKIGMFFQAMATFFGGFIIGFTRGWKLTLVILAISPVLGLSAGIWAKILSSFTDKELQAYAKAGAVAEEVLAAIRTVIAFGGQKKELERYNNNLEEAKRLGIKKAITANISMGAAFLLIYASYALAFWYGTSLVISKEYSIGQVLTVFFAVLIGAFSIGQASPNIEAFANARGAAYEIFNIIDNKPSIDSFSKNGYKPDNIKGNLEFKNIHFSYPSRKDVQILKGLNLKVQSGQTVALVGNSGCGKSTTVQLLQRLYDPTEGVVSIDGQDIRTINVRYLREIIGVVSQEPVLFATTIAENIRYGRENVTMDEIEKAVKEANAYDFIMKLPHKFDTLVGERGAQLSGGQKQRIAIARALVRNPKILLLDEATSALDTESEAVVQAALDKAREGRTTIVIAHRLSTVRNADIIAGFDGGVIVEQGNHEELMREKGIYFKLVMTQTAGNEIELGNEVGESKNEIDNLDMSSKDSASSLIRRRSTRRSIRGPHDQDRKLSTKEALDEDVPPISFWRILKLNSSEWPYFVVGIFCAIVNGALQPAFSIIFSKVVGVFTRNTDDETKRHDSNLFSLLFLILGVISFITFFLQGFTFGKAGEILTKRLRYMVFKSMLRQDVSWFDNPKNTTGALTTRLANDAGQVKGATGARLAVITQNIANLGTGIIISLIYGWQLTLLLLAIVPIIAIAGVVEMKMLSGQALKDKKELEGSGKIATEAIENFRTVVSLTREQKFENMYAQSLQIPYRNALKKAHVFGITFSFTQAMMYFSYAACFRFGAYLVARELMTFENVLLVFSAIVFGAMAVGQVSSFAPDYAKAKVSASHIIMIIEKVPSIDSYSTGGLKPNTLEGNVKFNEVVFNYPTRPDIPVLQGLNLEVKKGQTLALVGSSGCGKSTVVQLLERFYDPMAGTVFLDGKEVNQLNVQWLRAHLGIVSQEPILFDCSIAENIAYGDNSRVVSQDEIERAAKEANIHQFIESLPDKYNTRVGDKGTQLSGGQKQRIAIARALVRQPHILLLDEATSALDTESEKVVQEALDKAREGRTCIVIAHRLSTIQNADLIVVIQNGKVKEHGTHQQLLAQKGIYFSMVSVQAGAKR
Sequence of P-glycoprotein (Pgp) (P21448 whole entry): as above
Sequence of Pgp ATPase (P21448 whole entry): as above

Molecule: C/C=C/C[C@@H](C)C(=O)[C@H]1C(=O)N[C@@H](C(C)C)C(=O)N(C)CC(=O)N(C)[C@@H](CC(C)C)C(=O)N[C@@H](C(C)C)C(=O)N(C)[C@@H](CC(C)C)C(=O)N[C@@H](C)C(=O)N[C@H](C)C(=O)N(C)[C@@H](CC(C)C)C(=O)N(C)[C@@H](CC(C)C)C(=O)N(C)[C@@H](C(C)C)C(=O)N1C [PSC833]
- Kd [1]: 0.081 ± 0.0071 µM
- ΔFmax1 [1, 5]: 4.02 ± 0.079%

Molecule: CCN(CC)c1ccc2c(-c3ccccc3C(=O)O)c3ccc(=[N+](CC)CC)cc-3oc2c1 [rhodamine B]
- Kd [1, 6]: 4 ± 0.45 µM
- Kd [1, 7]: 33.2 ± 3.1 µM

Molecule: CC(C)[C@@H]1NC(=O)[C@H](C)OC(=O)[C@@H](C(C)C)NC(=O)[C@@H](C(C)C)OC(=O)[C@H](C(C)C)NC(=O)[C@H](C)OC(=O)[C@@H](C(C)C)NC(=O)[C@@H](C(C)C)OC(=O)[C@H](C(C)C)NC(=O)[C@H](C)OC(=O)[C@@H](C(C)C)NC(=O)[C@@H](C(C)C)OC1=O [valinomycin]
- Kd [1]: 0.72 ± 0.084 µM
- ΔFmax1 [1, 5]: 4.14 ± 0.086%

Molecule: C=CC(N)=O [acrylamide]
- decline in catalytic activity (ATP hydrolysis by Pgp) [2]: ~20%

Molecule: TNP-ATP
- ΔFmax1 [1, 5]: 79.6%
- ΔFmax [1]: ~80%
- Kd ([1]; nucleotide alone, absence of drug): 51 µM
- Kd [1, 6]: 50.6 µM
- Kd ([1]; titration following daunorubicin binding): 65 µM
- Kd ([1]; titration following saturation with vinblastine): 64 µM
- <tav> (amplitude average lifetime) [3]: 2.14 ns
- a1 (pre-exponential value) [3]: 0.69
- a2 (pre-exponential value) [3]: 0.42
- t1 (fluorescence lifetime) [3]: 1.0 ns
- t2 (fluorescence lifetime) [3]: 4.0 ns

Molecule: O=c1cc(N2CCOCC2)oc2c(-c3ccccc3)cccc12 [LY294002]
- Kd ([1]; Kd1, single binding site or high affinity site, 100 μg/mL Pgp, 2 mM CHAPS, 0.5 mg/mL PMPC, 22° C.): 6.29 ± 0.88 µM
- Kd ([1]; Kd2, lower affinity site of biphasic quench curve): 11.5 ± 1.5 µM
- ΔFmax2 ([1]; maximal Trp quenching): 36.2 ± 2.0%
- ΔFmax1 [1, 5]: 29.7 ± 1.6%

Molecule: CC[C@]1(O)C[C@@H]2CN(CCc3c([nH]c4ccccc34)[C@@](C(=O)OC)(c3cc4c(cc3OC)N(C)[C@H]3[C@@](O)(C(=O)OC)[C@H](OC(C)=O)[C@]5(CC)C=CCN6CC[C@]43[C@@H]65)C2)C1 [vinblastine]
- Kd [1]: 0.5 ± 0.08 µM
- ΔFmax1 [1, 5]: 17.5 ± 0.82%
- <tav> (amplitude average lifetime) [3]: 2.17 ns
- a1 (pre-exponential value) [3]: 1.07
- a2 (pre-exponential value) [3]: 0.51
- t1 (fluorescence lifetime) [3]: 1.1 ns
- t2 (fluorescence lifetime) [3]: 4.4 ns

Molecule: COc1cccc2c1C(=O)c1c(O)c3c(c(O)c1C2=O)C[C@@](O)(C(=O)CO)C[C@@H]3O[C@H]1C[C@H](N)[C@H](O)[C@H](C)O1 [doxorubicin]
- Kd [4]: 21.6 ± 3.2 µM
- Kd [1]: 5.44 ± 0.55 µM
- ΔFmax2 ([1]; maximal Trp quenching): 38.7 ± 3.0%
- ΔFmax1 [1, 5]: 19.5 ± 0.90%

Molecule: rhodamine 123
- Kd [1]: 6.81 ± 0.71 µM
- ΔFmax2 ([1]; maximal Trp quenching): 107.2 ± 1.8%
- ΔFmax1 [1, 5]: 47.5 ± 2.5%
- ΔFmax [1]: ~100%
- Kd [1, 7]: 29.8 ± 1 µM
- <tav> (amplitude average lifetime) [3]: 2.73 ns
- a1 (pre-exponential value) [3]: 0.65
- a2 (pre-exponential value) [3]: 0.43
- t1 (fluorescence lifetime) [3]: 1.5 ns
- t2 (fluorescence lifetime) [3]: 4.6 ns

Molecule: Nc1ncnc2c1ncn2C1OC(COP(=O)(O)OP(=O)(O)NP(=O)(O)O)C(O)C1O (centres unmarked) [AMP-PNP, 5′-adenylylimido-diphosphate]
- ΔFmax1 [1, 5]: 10.6%
- ΔFmax [1]: ~10%
- Kd ([1]; single type of binding site): 210 µM

Molecule: CCOc1ccc(-c2nc3ccc(-c4nc5ccc(N6CCN(C)CC6)cc5[nH]4)cc3[nH]2)cc1 [Hoechst 33342]
- ΔFmax1 [1, 5]: 57.2 ± 1.97%
- Kd [1, 6]: 2.61 ± 0.182 µM

Molecule: CCCCCCCCCCCCCCCCOP(=O)([O-])OCC[N+](C)(C)C [mitelfosine]
- ΔFmax1 [1]: 12.0 ± 1.0%
- Kd [1, 6]: 20.6 ± 3.3 µM
